Columns and labels:
[1] = cited from earlier work; for aqueous solubility: room temperature
Water content (TG-FTIR) = assay type: physicochemical
Method: Thermogravimetric measurements were carried out with a Netzsch Thermo-Microbalance TG 209 coupled to a Bruker FTIR Spectrometer Vector 22 (sample pans with a pinhole, N2 atmosphere, heating rate 10 K/min).
About 420 mg of the solid material obtained in Example 2 was weighed into a filter centrifuge device and 2.0 mL of water is added followed by centrifugation under ambient conditions. This wash step is repeated twice more using 0.5 mL of water. The wet filter cake is then transferred to a fritted glass filter and air dried by drawing ambient air (about 22° C./about 21% r.h.) through the glass filter for about 10 minutes.
(§1) DVS measurements were performed as follows: The sample was placed on an aluminum holder on top of a microbalance and allowed to equilibrate at 50% RH before starting the pre-defined humidity program: • (1) two hours kept at 50% constant relative humidity (RH) then • (2) reduced to 0% RH at a rate of 5% per hour • (3) maintained RH at 0% for five hours • (4) raised RH to 75% at a rate of 5% per hour • (5) maintained RH at 75% for five hours • (6) reduced to 0% RH at a rate of 5% per hour • (7) maintained RH at 0% for five hours • (8) raised RH to 75% at a rate of 5% per hour • (9) reduced to 50% RH at a rate of 5% per hour • (10) maintained RH at 50% for about one hour

[2] = purified/de-ionized water, room temperature, agitated one minute, gravimetric
Method: (§2) 2.00 mL of purified/de-ionized water (for instance water for chromatography) was added to the solid using an adjustable volumetric pipette. The mixture was vigorously agitated at room temperature for one minute. […] The solution was filtered by centrifugal filtration and 1.50 mL of the aqueous solution was transferred into a tared glass vial (about 10 mL volume). The water was evaporated in an air dryer at 40° C. for about 15 hours, then at 50° C. for about eight hours, subsequently drying was completed at 50° C. under vacuum (10 to 20 mbar) for about 13 hours. The solubility was determined by gravimetric evaluation of the solid residue.
as §2, with “The suspension” for “The solution”

[3] = Hygroscopicity by dynamic water vapor sorption analysis (DVS); assay type: physicochemical; conditions: 0 to 75% r.h.
Method: DVS measurements are typically performed with an SPS11-100n “Sorptions Prüfsystem” from ProUmid (formerly “Projekt Messtechnik”), August-Nagel-Str. 23, 89079 Ulm (Germany).
as §1
The results are illustrated in FIG. 2.

CN1c2c([nH]c(N)nc2=O)NC[C@@H]1CNc1ccc(C(=O)N[C@@H](CCC(=O)[O-])C(=O)[O-])cc1.[Ca+2] [calcium salt (Form III), calcium salt of 5-methyl-(6S)-tetrahydrofolic acid]
aqueous solubility [1]: about 2.5 mg/ml

CN1c2c(nc(N)[nH]c2=O)NC[C@@H]1CNc1ccc(C(=O)N[C@@H](CCC(=O)O)C(=O)O)cc1 [5-methyl-(6S)-tetrahydrofolic acid]
solubility in water ([1]; water): poorly soluble in water

CCOC(=O)[C@@H](N)CC(C)C.CN1c2c([nH]c(N)nc2=O)NC[C@@H]1CNc1ccc(C(=O)N[C@@H](CCC(=O)O)C(=O)O)cc1 [5-methyl-(6S)-tetrahydrofolic acid L-leucine ethyl ester 1:1 salt]
water content (Water content (TG-FTIR); TG-FTIR analysis): about 0.7%

CN1c2c([nH]c(N)nc2=O)NC[C@@H]1CNc1ccc(C(=O)N[C@@H](CCC(=O)[O-])C(=O)[O-])cc1.[Ca+2] [Form I, calcium salt of 5-methyl-(6S)-tetrahydrofolic acid]
aqueous solubility [1]: about 10 mg/ml

5-methyl-(6S)-tetrahydrofolic acid calcium salt
kinetic solubility [2]: 9.0 mg of 5-methyl-(6S)-tetrahydrofolic acid per mL
water content (Water content (TG-FTIR); method not stated): 12.4%
change of water content within tested relative humidity range [3]: about 7.4%
